Emax data for 21 compounds are collected here from patent US20100240642A1, “1H-Indole-2-Carboxylic Acid Derivatives Useful As PPAR Modulators” (SMITHKLINE BEECHAM CORPORATION, priority 2006, published 2010).

The assay deals with T1, hPPARγ receptor (Homo sapiens, UniProt P37231).
T1 construct: expressed in transfected cells; host or cells: CV-1 (African Green Monkey kidney, ATCC CCL-70)
T1 sequence (P37231 172-475 isoform P37231-2): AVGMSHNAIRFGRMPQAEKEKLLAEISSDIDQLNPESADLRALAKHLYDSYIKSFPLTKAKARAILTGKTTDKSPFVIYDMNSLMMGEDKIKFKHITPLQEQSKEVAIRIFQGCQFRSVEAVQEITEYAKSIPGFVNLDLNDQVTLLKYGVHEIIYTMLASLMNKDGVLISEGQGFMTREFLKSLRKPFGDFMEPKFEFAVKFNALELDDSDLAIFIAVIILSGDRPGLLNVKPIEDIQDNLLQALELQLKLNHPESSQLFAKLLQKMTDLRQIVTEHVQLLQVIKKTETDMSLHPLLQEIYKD
As to the kind of experiment: PPARγ Cell-based luciferase assay. An excerpt: Plasmids—PCR primers containing Kpnl and BamHI restriction sites were used to amplify PPARγ ligand binding domain (LBD) fragment (172-475) from a full-length human clone. The LBD fragment was ligated into the multiple cloning site of pFA-CMV (Stratagene). The resulting construct (pFA-CMV-GAL4-hPPARγLBD carried a fusion of the LBD with the yeast-derived GAL4 DNA-binding domain under the control of the CMV immediate early promoter. Reporter construct UAStkLuc carries a single 17 bp (CGGAGTACTGTCCTCCG) upstream activating sequence (UAS), the tk minimal promoter, and the firefly luciferase gene. The integrity of each construct was confirmed by diagnostic restriction digestion and by sequencing. Plasmid DNA was prepared using Qiagen Maxi-Prep kits.
PPARγ Cell-based luciferase assay—African Green Monkey kidney cell line CV-1 (ATCC CCL-70) was maintained in Dulbecco's Modified Eagle's Medium (D-MEM) containing 10% fetal bovine serum, 2 mM glutamine, and 1% penicillin/streptomycin (pen/strep). In preparation for luciferase assays, CV-1 cells were grown in charcoal-stripped cell medium containing D-MEM/F-12 medium supplemented with 5% or 3% dextran-treated/charcoal-stripped (CS) fetal bovine serum, 2 mM glutamine, with or without 1% pen/strep, as described below. CS fetal bovine serum was purchased from Hyclone; all other cell culture reagents were from Gibco.
The luciferase protocol is a multi-day procedure. On day 1, confluent cells in maintenance medium were subcultured 1:10 into T-175 cm^2 flasks containing 50 mL of 3% CS medium with pen/strep. These flasks were allowed to incubate at 5% CO2 and 37° C. for 72 hours.
Cells were harvested by trypsinization and then transfected using FuGENE (Roche) according to the manufacturer's specifications. Briefly, each transfection contained 0.55 μg pFA_CMV_GAL4_hPPARγ_LBD plasmid, 10.9 μg UAStkLUC, and 24 μg pBluescript (carrier DNA). Plasmid DNA was mixed with FuGENE in OptiMEM-1 medium and incubated for 30 min at room temperature. During this incubation, cells were harvested into 3% CS medium without pen-strep and dispensed at 14 million cells per T-175 cm^2 flask. Transfection mixes were added to the flasks and incubated overnight at 5% CO2 and 37° C.
Transfected cells were added to 384-well plates containing pharmacological agents. Rosiglitazone standard was reconstituted in DMSO at 1 mM. For 11-point dose-response experiments, the compounds were 3-fold serially diluted in DMSO and then stamped to 384-well assay plates (NUNC, catalog #164564) at 0.5 μL/well using a Beckman FX. DMSO and agonist control compound Rosiglitazone (1 mM) were each stamped at 0.5 μL/well to columns 23 and 24, respectively, of the 384-well plates. Transfected cells were harvested in 5% CS medium with pen/strep and dispensed at 10,000 cells/well (50 μL) onto the prepared 384-well compound plates using a Titertek Multidrop. Following overnight incubation at 5% CO2 and 37° C., Steady-Glo reagent (Promega) was added to the assay plates using a Multidrop. Plates were incubated for 10 min to ensure complete cell lysis and read in a ViewLux (PerkinElmer). […] Partial agonism is defined here as 20-80% activation (relative to full agonist rosiglitazone) at concentrations of 10^−6 M or less.

[1] abbreviates: CV-1 cells transfected with GAL4-hPPARγ LBD and UAStkLuc, at concentrations of 10^−6 M or less, read-out: agonism of the hPPARγ receptor (activation relative to full agonist rosiglitazone).

Read-outs that look alike come from different tables or passages of the source.

Regarding `CNC(=O)c1cccc(-c2ccc(C)c(Cn3c(C(=O)O)c(-c4ccc(C(C)(C)C)cc4)c4ccccc43)c2)c1` [Example 29, 3-[4-(1,1-dimethylethyl)phenyl]-1-({4-methyl-3′-[(methylamino)carbonyl]-3-biphenylyl}methyl)-1H-indole-2-carboxylic acid], the Emax under setting [1] lay within 20 to 80%.

`CC(=O)N1CCN(c2cccc(Cn3c(C(=O)O)c(-c4ccc(C(C)(C)C)cc4)c4ccccc43)c2)CC1` [Example 35, 1-{[3-(4-acetyl-1-piperazinyl)phenyl]methyl}-3-[4-(1,1-dimethylethyl)phenyl]-1H-indole-2-carboxylic acid]: under setting [1], the Emax was in the range of 20 to 80%.

As to `Cc1ccc(-c2ccc(O)cc2)cc1Cn1c(C(=O)O)c(-c2ccc(C(C)(C)C)cc2)c2ccccc21` [Example 10, 3-[4-(1,1-dimethylethyl)phenyl]-1-[(4′-hydroxy-4-methyl-3-biphenylyl)methyl]-1H-indole-2-carboxylic acid], the Emax under setting [1] is 20 to 80%.

Turning to `CCOC(=O)N1CCN(c2cccc(Cn3c(C(=O)O)c(-c4ccc(C(C)(C)C)cc4)c4ccccc43)c2)CC1` [Example 46, 3-[4-(1,1-dimethylethyl)phenyl]-1-[(3-{4-[(ethyloxy)carbonyl]-1-piperazinyl}phenyl)methyl]-1H-indole-2-carboxylic acid], the Emax under setting [1] fell in the range of 20 to 80%.

Turning to `COCCOc1cc(Cn2c(C(=O)O)c(Nc3ccc(C(C)(C)C)cc3)c3ccccc32)cc(OCCOC)c1` [Example 62, 1-[(3,5-bis{[2-(methyloxy)ethyl]oxy}phenyl)methyl]-3-{[4-(1,1-dimethylethyl)phenyl]amino}-1H-indole-2-carboxylic acid], the Emax under setting [1] lay within 20 to 80%.

On to `CC(C)(C)c1ccc(-c2c(C(=O)O)n(Cc3cc(OCC4CC4)cc(OCC4CC4)c3)c3ccccc23)cc1` [Example 5, 1-({3,5-bis[(cyclopropylmethyl)oxy]phenyl}methyl)-3-[4-(1,1-dimethylethyl)phenyl]-1H-indole-2-carboxylic acid], for which, under setting [1], the Emax was 20 to 80%.

On to `Cc1ccc(-c2ccc(C(=O)NCc3cccs3)cc2)cc1Cn1c(C(=O)O)c(-c2ccc(C(C)(C)C)cc2)c2ccccc21` [Example 32, 3-[4-(1,1-dimethylethyl)phenyl]-1-[(4-methyl-4′-{[(2-thienylmethyl)amino]carbonyl}-3-biphenylyl)methyl]-1H-indole-2-carboxylic acid], for which the Emax under setting [1] was in the range of 20 to 80%.

On to `COCCOc1cc(Cn2c(C(=O)O)c(-c3ccc(C(C)(C)C)cc3)c3ccccc32)cc(OC(=O)N2CCCCC2)c1` [Example 51, 3-[4-(1,1-dimethylethyl)phenyl]-1-({3-{[2-(methyloxy)ethyl]oxy}-5-[(1-piperidinylcarbonyl)oxy]phenyl}methyl)-1H-indole-2-carboxylic acid], for which the Emax under setting [1] fell in the range of 20 to 80%.

`COc1ccc(-c2c(C(=O)O)n(Cc3cccc(-c4ccc(O)cc4)c3)c3ccccc23)cn1` [Example 16, 1-[(4′-hydroxy-3-biphenylyl)methyl]-3-[6-(methyloxy)-3-pyridinyl]-1H-indole-2-carboxylic acid]: the Emax under setting [1] is 20 to 80%.

`CN(C)CCOc1cc(Cn2c(C(=O)O)c(-c3ccc(C(C)(C)C)cc3)c3ccccc32)cc(OCC2CC2)c1` [Example 40, 1-[(3-[(cyclopropylmethyl)oxy]-5-{[2-(dimethylamino)ethyl]oxy}phenyl)methyl]-3-[4-(1,1-dimethylethyl)phenyl]-1H-indole-2-carboxylic acid]: the Emax under setting [1] lay within 20 to 80%.

Regarding `CN(C)CCCOc1cc(Cn2c(C(=O)O)c(-c3ccc(C(C)(C)C)cc3)c3ccccc32)cc(OCC2CC2)c1` [Example 43, 1-[(3-[(cyclopropylmethyl)oxy]-5-{[3-(dimethylamino)propyl]oxy}phenyl)methyl]-3-[4-(1,1-dimethylethyl)phenyl]-1H-indole-2-carboxylic acid], under setting [1], the Emax was in the range of 20 to 80%.

For the compound `CC(C)(C)c1ccc(-c2c(C(=O)O)n(Cc3cccc(N4CCN(S(C)(=O)=O)CC4)c3)c3ccccc23)cc1` [Example 34, 3-[4-(1,1-dimethylethyl)phenyl]-1-({3-[4-(methylsulfonyl)-1-piperazinyl]phenyl}methyl)-1H-indole-2-carboxylic acid], the Emax under setting [1] fell in the range of 20 to 80%.

As to `COCCOc1cc(Cn2c(C(=O)O)c(-c3ccc(C(C)(C)C)cc3)c3ccccc32)cc(OC(=O)N2CCOCC2)c1` [Example 52, 3-[4-(1,1-dimethylethyl)phenyl]-1-({3-{[2-(methyloxy)ethyl]oxy}-5-[(4-morpholinylcarbonyl)oxy]phenyl}methyl)-1H-indole-2-carboxylic acid], the Emax under setting [1] lay within 20 to 80%.

Regarding `CC(C)(C)c1ccc(-c2c(C(=O)O)n(Cc3cc(O)cc(OCC4CC4)c3)c3ccccc23)cc1` [Example 3, 1-({3-[(cyclopropylmethyl)oxy]-5-hydroxyphenyl}methyl)-3-[4-(1,1-dimethylethyl)phenyl]-1H-indole-2-carboxylic acid], the Emax under setting [1] lay within 20 to 80%.

Turning to `CSc1cccc(-c2ccc(C)c(Cn3c(C(=O)O)c(-c4ccc(C(C)(C)C)cc4)c4ccccc43)c2)c1` [Example 17, 3-[4-(1,1-dimethylethyl)phenyl]-1-{[4-methyl-3′-(methylthio)-3-biphenylyl]methyl}-1H-indole-2-carboxylic acid], under setting [1], the Emax was in the range of 20 to 80%.

For `Cc1ccc(N2CCOCC2)cc1Cn1c(C(=O)O)c(-c2ccc(C(C)(C)C)cc2)c2ccccc21` [Example 27, 3-[4-(1,1-dimethylethyl)phenyl]-1-{[2-methyl-5-(4-morpholinyl)phenyl]methyl}-1H-indole-2-carboxylic acid], the Emax under setting [1] lay within 20 to 80%.

As to `COc1cc(Cn2c(C(=O)O)c(-c3ccc(C(C)(C)C)cc3)c3ccccc32)cc(OCC2CC2)c1` [Example 4, 1-{[3-[(cyclopropylmethyl)oxy]-5-(methyloxy)phenyl]methyl}-3-[4-(1,1-dimethylethyl)phenyl]-1H-indole-2-carboxylic acid], the Emax under setting [1] was in the range of 20 to 80%.

On to `CC(C)(C)c1ccc(-c2c(C(=O)O)n(Cc3cccc(-c4ccc(O)cc4)c3)c3ccccc23)cc1` [Example 9, 3-[4-(1,1-dimethylethyl)phenyl]-1-[(4′-hydroxy-3-biphenylyl)methyl]-1H-indole-2-carboxylic acid], for which the Emax under setting [1] is 20 to 80%.

As for `COCCOc1cc(Cn2c(C(=O)O)c(-c3ccc(C(C)(C)C)cc3)c3ccccc32)cc(OC(=O)N(C)C)c1` [Example 49, 1-[(3-{[(dimethylamino)carbonyl]oxy}-5-{[2-(methyloxy)ethyl]oxy}phenyl)methyl]-3-[4-(1,1-dimethylethyl)phenyl]-1H-indole-2-carboxylic acid], for the setting “CV-1, read-out: agonism of the hPPARγ receptor (activation relative to full agonist rosiglitazone)”, the Emax is 20 to 80%.

In the case of `COc1ccc(-c2ccc(C)c(Cn3c(C(=O)O)c(-c4ccc(C(C)(C)C)cc4)c4ccccc43)c2)cc1` [Example 13, 3-[4-(1,1-dimethylethyl)phenyl]-1-{[4-methyl-4′-(methyloxy)-3-biphenylyl]methyl}-1H-indole-2-carboxylic acid], under setting [1], the Emax fell in the range of 20 to 80%.

As to `COCCOCCCOc1cc(Cn2c(C(=O)O)c(Cc3cccc(C(F)(F)F)c3)c3ccccc32)cc(OCC2CC2)c1` [Example 55, 1-({3-[(cyclopropylmethyl)oxy]-5-[(3-{[2-(methyloxy)ethyl]oxy}propyl)oxy]phenyl}methyl)-3-{[3-(trifluoromethyl)phenyl]methyl}-1H-indole-2-carboxylic acid], the Emax under setting [1] is 20 to 80%.
